{"source": "patent US9169254B2", "about": "“Spiroimidazolone derivative” (Chugai Seiyaku Kabushiki Kaisha, priority 2009, dated 2015)", "data": [{"target": "T1, human PTH1 receptor (Homo sapiens, UniProt Q03431)", "T1 sequence (Q03431 27-593)": "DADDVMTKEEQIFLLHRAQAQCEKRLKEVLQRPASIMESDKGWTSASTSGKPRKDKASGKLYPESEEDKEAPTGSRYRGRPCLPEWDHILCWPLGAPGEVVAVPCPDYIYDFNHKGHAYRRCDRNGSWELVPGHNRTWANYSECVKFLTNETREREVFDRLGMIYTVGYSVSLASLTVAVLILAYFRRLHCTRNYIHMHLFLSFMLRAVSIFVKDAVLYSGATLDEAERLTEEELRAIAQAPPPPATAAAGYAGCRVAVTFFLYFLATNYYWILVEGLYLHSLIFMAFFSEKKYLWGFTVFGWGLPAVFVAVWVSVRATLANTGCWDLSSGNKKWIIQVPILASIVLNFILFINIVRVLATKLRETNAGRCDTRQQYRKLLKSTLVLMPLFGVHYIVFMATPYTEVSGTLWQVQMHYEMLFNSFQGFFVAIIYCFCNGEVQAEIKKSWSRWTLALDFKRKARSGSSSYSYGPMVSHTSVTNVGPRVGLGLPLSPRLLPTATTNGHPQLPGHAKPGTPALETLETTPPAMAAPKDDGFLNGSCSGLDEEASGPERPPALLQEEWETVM", "test": "In vitro cAMP signal activity in HKRK-B7 cells (LLC-PK1 cells overexpressing the human PTH1 receptor)", "assay_type": "cell-based", "conditions": "HKRK-B7 cells; compound at 1×10^−3 M; cAMP produced as percentage of that produced by hPTH(1-34) at 100 nM", "units": {"cAMP production activity (%)": "%"}, "values": [{"molecule": "Cc1ccc(C(=O)N(C)C)cc1CCS(=O)(=O)N1CCC2(CC1)N=C(c1cccc(OC(F)(F)F)c1)NC2=O", "note": "[Compound 412, 4,N,N-Trimethyl-3-{2-[4-oxo-2-(3-trifluoromethoxy-phenyl)-1,3,8-triaza-spiro[4.5]dec-1-ene-8-sulfonyl]-ethyl}-benzamide]", "cAMP production activity (%)": 54}, {"molecule": "Cc1ccc(C(=O)N(C)CCO)cc1CCS(=O)(=O)N1CCC2(CC1)N=C(c1cccc(OC(F)(F)F)c1)NC2=O", "note": "[Compound 413, N-(2-hydroxy-ethyl)-4,N-dimethyl-3-{2-[4-oxo-2-(3-trifluoromethoxy-phenyl)-1,3,8-triaza-spiro[4.5]dec-1-ene-8-sulfonyl]-ethyl}-benzamide]", "cAMP production activity (%)": 56}, {"molecule": "Cc1ccc(C(=O)N2CCN(C)CC2)cc1CCS(=O)(=O)N1CCC2(CC1)N=C(c1cccc(OC(F)(F)F)c1)NC2=O", "note": "[Compound 414, 8-{2-[2-methyl-5-(4-methyl-piperazine-1-carbonyl)-phenyl]-ethanesulfonyl}-2-(3-trifluoromethoxy-phenyl)-1,3,8-triaza-spiro[4.5]dec-1-en-4-one]", "cAMP production activity (%)": 69}, {"molecule": "CNC(=O)c1ccc(C)c(CCS(=O)(=O)N2CCC3(CC2)N=C(c2cccc(OC(F)(F)F)c2)NC3=O)c1", "note": "[Compound 415, 4,N-dimethyl-3-{2-[4-oxo-2-(3-trifluoromethoxy-phenyl)-1,3,8-triaza-spiro[4.5]dec-1-ene-8-sulfonyl]-ethyl}-benzamide]", "cAMP production activity (%)": 56}, {"molecule": "Cc1cc(C(=O)N2CCN(CCO)CC2)ccc1CCS(=O)(=O)N1CCC2(CC1)N=C(c1cccc(OC(F)(F)F)c1)NC2=O", "note": "[Compound 416, 8-(2-{4-[4-(2-Hydroxy-ethyl)-piperazine-1-carbonyl]-2-methyl-phenyl}-ethanesulfonyl)-2-(3-trifluoromethoxy-phenyl)-1,3,8-triaza-spiro[4.5]dec-1-en-4-one]", "cAMP production activity (%)": 66}, {"molecule": "Cc1cc(C(=O)N2CCSC2)ccc1CCS(=O)(=O)N1CCC2(CC1)N=C(c1cccc(OC(F)(F)F)c1)NC2=O", "note": "[Compound 417, 8-{2-[2-methyl-4-(thiazolidine-3-carbonyl)-phenyl]-ethanesulfonyl}-2-(3-trifluoromethoxy-phenyl)-1,3,8-triaza-spiro[4.5]dec-1-en-4-one]", "cAMP production activity (%)": 97}, {"molecule": "Cc1cc(C(=O)N(C)C)c(F)cc1CCS(=O)(=O)N1CCC2(CC1)N=C(c1cccc(C(F)(F)F)c1)NC2=O", "note": "[Compound 418, 2-Fluoro-5,N,N-trimethyl-4-{2-[4-oxo-2-(3-trifluoromethyl-phenyl)-1,3,8-triaza-spiro[4.5]dec-1-ene-8-sulfonyl]-ethyl}-benzamide]", "cAMP production activity (%)": 84}, {"molecule": "Cc1cc(C(=O)N2CCC(O)CC2)c(F)cc1CCS(=O)(=O)N1CCC2(CC1)N=C(c1cccc(C(F)(F)F)c1)NC2=O", "note": "[Compound 419, 8-{2-[5-fluoro-4-(4-hydroxy-piperidine-1-carbonyl)-2-methyl-phenyl]-ethanesulfonyl}-2-(3-trifluoromethyl-phenyl)-1,3,8-triaza-spiro[4.5]dec-1-en-4-one]", "cAMP production activity (%)": 96}, {"molecule": "O=C(Cc1c[nH]c2cccc(CCS(=O)(=O)N3CCC4(CC3)N=C(C3CCCCC3)NC4=O)c12)NCc1ccccc1", "note": "[Compound 420, N-Benzyl-2-{4-[2-(2-cyclohexyl-4-oxo-1,3,8-triaza-spiro[4.5]dec-1-ene-8-sulfonyl)-ethyl]-1H-indol-3-yl}-acetamide]", "cAMP production activity (%)": 31}, {"molecule": "CNC(=O)c1ccccc1CCS(=O)(=O)N1CCC2(CC1)N=C(C1CCCCC1)NC2=O", "note": "[Compound 421, 2-[2-(2-Cyclohexyl-4-oxo-1,3,8-triaza-spiro[4.5]dec-1-ene-8-sulfonyl)-ethyl]-N-methyl-benzamide]", "cAMP production activity (%)": 68}, {"molecule": "O=C(Nc1ccncc1)c1cccc(CCS(=O)(=O)N2CCC3(CC2)N=C(C2CCCCC2)NC3=O)c1", "note": "[Compound 422, 3-[2-(2-cyclohexyl-4-oxo-1,3,8-triaza-spiro[4.5]dec-1-ene-8-sulfonyl)-ethyl]-N-pyridin-4-yl-benzamide]", "cAMP production activity (%)": 14}, {"molecule": "CC(C)(C)CC(=O)N1CCCC(C2=NC3(CCN(S(=O)(=O)c4cccc(Cl)c4)CC3)C(=O)N2)C1", "note": "(centres unmarked) [Compound 423, 8-(3-Chloro-benzenesulfonyl)-2-[1-(3,3-dimethyl-butyryl)-piperidin-3-yl]-1,3,8-triaza-spiro[4.5]dec-1-en-4-one]", "cAMP production activity (%)": 42}, {"molecule": "O=C(CO)N1CCCC(C2=NC3(CCN(S(=O)(=O)c4cccc(Cl)c4)CC3)C(=O)N2)C1", "note": "(centres unmarked) [Compound 424, 8-(3-chloro-benzenesulfonyl)-2-[1-(2-hydroxy-acetyl)-piperidin-3-yl]-1,3,8-triaza-spiro[4.5]dec-1-en-4-one]", "cAMP production activity (%)": 2.5}, {"molecule": "O=C(c1ccc(Cl)cc1)N1CCCC(C2=NC3(CCN(S(=O)(=O)c4cccc(Cl)c4)CC3)C(=O)N2)C1", "note": "(centres unmarked) [Compound 425, 8-(3-Chloro-benzenesulfonyl)-2-[1-(4-chloro-benzoyl)-piperidin-3-yl]-1,3,8-triaza-spiro[4.5]dec-1-en-4-one]", "cAMP production activity (%)": 17}, {"molecule": "COc1cccc(C(=O)N2CCCC(C3=NC4(CCN(S(=O)(=O)c5cccc(Cl)c5)CC4)C(=O)N3)C2)c1", "note": "(centres unmarked) [Compound 426, 8-(3-chloro-benzenesulfonyl)-2-[1-(3-methoxy-benzoyl)-piperidin-3-yl]-1,3,8-triaza-spiro[4.5]dec-1-en-4-one]", "cAMP production activity (%)": 16}, {"molecule": "O=C(c1ccc2[nH]ccc2c1)N1CCCC(C2=NC3(CCN(S(=O)(=O)CCc4cccc5ccccc45)CC3)C(=O)N2)C1", "note": "(centres unmarked) [Compound 428, 2-[1-(1H-Indol-5-carbonyl)-piperidin-3-yl]-8-(2-naphthalen-1-yl-ethanesulfonyl)-1,3,8-triaza-spiro[4.5]dec-1-en-4-one]", "cAMP production activity (%)": 8.8}, {"molecule": "O=C(CCc1ccccc1)N1CCCC(C2=NC3(CCN(S(=O)(=O)CCc4cccc5ccccc45)CC3)C(=O)N2)C1", "note": "(centres unmarked) [Compound 429, 8-(2-naphthalen-1-yl-ethanesulfonyl)-2-[1-(3-phenyl-propionyl)-piperidin-3-yl]-1,3,8-triaza-spiro[4.5]dec-1-en-4-one]", "cAMP production activity (%)": 38}, {"molecule": "O=C(C1CCc2ccccc2C1)N1CCCC(C2=NC3(CCN(S(=O)(=O)CCc4cccc5ccccc45)CC3)C(=O)N2)C1", "note": "(centres unmarked) [Compound 430, 8-(2-naphthalen-1-yl-ethanesulfonyl)-2-[1-(1,2,3,4-tetrahydro-naphthalene-2-carbonyl)-piperidin-3-yl]-1,3,8-triaza-spiro[4.5]dec-1-en-4-one]", "cAMP production activity (%)": 23}, {"molecule": "O=C(c1ccc2ncccc2c1)N1CCCC(C2=NC3(CCN(S(=O)(=O)CCc4cccc5ccccc45)CC3)C(=O)N2)C1", "note": "(centres unmarked) [Compound 431, 8-(2-naphthalen-1-yl-ethanesulfonyl)-2-[1-(quinoline-6-carbonyl)-piperidin-3-yl]-1,3,8-triaza-spiro[4.5]dec-1-en-4-one]", "cAMP production activity (%)": 14}, {"molecule": "O=C(Cc1cnc[nH]1)N1CCCC(C2=NC3(CCN(S(=O)(=O)CCc4cccc5ccccc45)CC3)C(=O)N2)C1", "note": "(centres unmarked) [Compound 432, 2-[1-(2-3H-imidazol-4-yl-acetyl)-piperidin-3-yl]-8-(2-naphthalen-1-yl-ethanesulfonyl)-1,3,8-triaza-spiro[4.5]dec-1-en-4-one]", "cAMP production activity (%)": 5.1}]}]}
